The record followed here is patent publication US9504251B2, “Pesticidal compositions and related methods” (Dow AgroSciences LLC, priority 2014, dated 2016).

The test system of assay [1] is Sweetpotato Whitefly-crawler (Bemisia tabaci) (WF) (BEMITA). Kind of assay: Sweetpotato whitefly-crawler (WF) foliar spray assay on cotton plants. The class given is in vivo. To be noted: 216 h, 200 ppm foliar spray on cotton plants, graded after 9 days, Abbott-corrected % control, disclosed compounds (TABLE 2), read-out: WF % Control (or Mortality) rating. As for the experimental part: Foliar spray assay for WF was prepared as follows: Cotton plants (Gossypium hirsutum) grown in 3-inch pots, with 1 small (4-5 cm) true leaf, were used as test substrate. The plants were infested with 200-400 whitefly eggs 4-5 days prior to chemical application. Four pots with individual plants were used for each treatment. Tested compounds (2 mg) were dissolved in 1 mL of acetone solvent, forming stock solutions of 2000 ppm tested compound.
The stock solutions were diluted ten times with 0.025% TWEEN® 20 surfactant in H2O (diluents) to obtain the solution at 200 ppm tested compound. A hand-held aspirator-type sprayer was used for spraying the solution to both sides of cotton leaves until runoff. The control plants (solvent check) were sprayed with the diluent only containing 10% by volume of acetone solvent. Treated plants were held in a holding room for 9 days at approximately 25° C. and ambient relative humidity (RH) prior to grading. Evaluation was conducted by counting the number of live 3-4 nymph stage per plant under a microscope. Percent control was measured by using Abbott's correction formula (W. S. Abbott, “A Method of Computing the Effectiveness of an Insecticide,” J. Econ. Entomol. 18 (1925), pp. 265-267) as follows. Corrected % Control=100*(X−Y)/X
X=No. of live nymphs on solvent check plants and
Y=No. of live nymphs on treated plants.
(§1) The comparative compounds were tested for insecticidal activities against GPA and WF pests using the same test protocols described above for the disclosed compounds.

For assay [2], the system named is Green Peach Aphid (Myzus persicae) (GPA) (MYZUPE). Kind of assay: Green peach aphid (GPA) foliar spray bioassay on cabbage seedlings. The class given is in vivo. Particulars: 72 h, 200 ppm foliar spray on cabbage seedlings, graded after three days, Abbott-corrected % control, disclosed compounds (TABLE 2), read-out: GPA % Control (or Mortality) rating. As for the experimental part:
Bioassay for GPA was prepared as follows: Cabbage seedlings grown in 3-inch pots, with 2-3 small (3-5 cm) true leaves, were used as test substrate. The seedlings were infested with 20-50 GPA (adult and nymph stages) one day prior to chemical application. Four pots with individual seedlings were used for each treatment. The tested compounds (2 mg) were dissolved in 2 mL of acetone/methanol (1:1) solvent to form stock solutions of 1000 ppm tested compound. The stock solutions were diluted five times with an aqueous solution containing 0.025% TWEEN® 20 surfactant, which is polyoxyethylene (20) sorbitan monolaurate, to obtain the solution at 200 ppm tested compound. A hand-held aspirator-type sprayer was used for spraying the solution to both sides of cabbage leaves until runoff. The control plants (solvent check) were sprayed with the diluent only containing 20% by volume of acetone/methanol (1:1) solvent. Treated plants were held in a holding room for three days at approximately 25° C. and ambient relative humidity (RH) prior to grading. Evaluation was conducted by counting the number of live aphids per plant under a microscope. Percent control was measured by using Abbott's correction formula (W. S. Abbott, “A Method of Computing the Effectiveness of an Insecticide,” J. Econ. Entomol. 18 (1925), pp. 265-267) as follows. Corrected % Control=100*(X−Y)/X
X=No. of live aphids on solvent check plants and
Y=No. of live aphids on treated plants
as §1

In the case of `O=C(CN1CCc2nn(-c3cccnc3)cc2C1=O)N1CCN(C2CCC2)CC1` [Compound F42, 5-[2-(4-Cyclobutylpiperazin-1-yl)-2-oxo-ethyl]-2-(3-pyridyl)-6,7-dihydropyrazolo[4,3-c]pyridin-4-one], the mortality at 200 ppm in assay [1] and in assay [2] was 80 to 100% in each case.
On to `O=C1c2cn(-c3cccnc3)nc2CCN1c1ccccn1` [Compound F43, 5-(pyridin-2-yl)-2-(pyridin-3-yl)-6,7-dihydro-2H-pyrazolo[4,3-c]pyridin-4(5H)-one], for which the mortality at 200 ppm in assay [1] was 0 to 80%; in assay [2], 80 to 100%.
Consider `O=C1c2cn(-c3cccnc3)nc2CCN1c1cccc(C(F)(F)F)n1` [Compound F46, 2-(3-Pyridyl)-5-[6-(trifluoromethyl)-2-pyridyl]-6,7-dihydropyrazolo[4,3-c]pyridin-4-one], for which the mortality at 200 ppm in assay [1] is 0 to 80%; in assay [2], 80 to 100%.
The matching figures for `O=C1c2cn(-c3cccnc3)nc2CCN1c1cc(C(F)(F)F)ncn1` [Compound F48, 2-(3-Pyridyl)-5-[6-(trifluoromethyl)pyrimidin-4-yl]-6,7-dihydropyrazolo[4,3-c]pyridin-4-one]: 0 to 80% and 80 to 100%.
Taken in the same sequence, the figures for `O=C1c2cn(-c3cccnc3)nc2CCN1c1ccc(F)cn1` [Compound F49, 5-(5-Fluoro-2-pyridyl)-2-(3-pyridyl)-6,7-dihydropyrazolo[4,3-c]pyridin-4-one] were 0 to 80% and 80 to 100%.
Taken in the same sequence, the figures for `O=C1c2cn(-c3cccnc3)nc2CCN1Cc1ccc(C(F)(F)F)cc1` [Compound F50, 2-(3-Pyridyl)-5-[[4-(trifluoromethyl)phenyl]methyl]-6,7-dihydropyrazolo[4,3-c]pyridine-4-one] were 0 to 80% and 80 to 100%.
`CS(=O)(=O)CN1CCc2nn(-c3cccnc3)cc2C1=O` [Compound F51, 5-((methylsulfonyl)methyl)-2-(pyridin-3-yl)-6,7-dihydro-2H-pyrazolo[4,3-c]pyridin-4(5H)-one]: the mortality at 200 ppm in assay [1] and in assay [2] was 80 to 100% throughout.
`O=C(CN1CCc2nn(-c3cccnc3)cc2C1=O)c1ccccc1` [Compound P18, 5-(2-oxo-2-phenylethyl)-2-(pyridin-3-yl)-2,5,6,7-tetrahydro-4H-pyrazolo[4,3-c]pyridin-4-one]: the mortality at 200 ppm in assay [1] and in assay [2] was 80 to 100% each time.

By mortality is commonly meant the percentage killed.
